Assay results published in ChEMBL document CHEMBL3046501, “Synthesis, characterization & anticonvulsant activity of amide derivatives of 4-amino-1,2-naphthoquinone” (Med Chem Res, 2013).
Active and inactive are the calls of the source. No cut-off for these calls is given here.

Tests used:
Mus musculus [1] = assay: Anticonvulsant activity in Swiss albino Mus musculus (mouse) assessed as protection against subcutaneous pentylenetetrazol-induced seizures at 10 mg/kg, ip after 4 hr; type: functional, organism-based; parameters: dose 10 mg/kg
Mus musculus [2] = assay: Anticonvulsant activity in Swiss albino Mus musculus (mouse) assessed as protection against subcutaneous pentylenetetrazol-induced seizures at 20 mg/kg, ip after 4 hr; type: functional, organism-based; parameters: dose 20 mg/kg
Mus musculus [3] = assay: Anticonvulsant activity in Swiss albino Mus musculus (mouse) assessed as protection against maximal electroshock-induced seizures at 20 mg/kg, ip after 4 hr; type: functional, organism-based; parameters: dose 20 mg/kg
Mus musculus [4] = assay: Anticonvulsant activity in Swiss albino Mus musculus (mouse) assessed as protection against maximal electroshock-induced seizures at 20 mg/kg, ip after 1 hr; type: functional, organism-based; parameters: dose 20 mg/kg
Mus musculus [5] = assay: Neurotoxicity in Swiss albino Mus musculus (mouse) assessed as minimal motor impairment at 30 mg/kg, ip after 4 hr; type: toxicity, organism-based; parameters: dose 30 mg/kg, route intraperitoneal; conditions: in vivo
Mus musculus [6] = assay: Anticonvulsant activity in Swiss albino Mus musculus (mouse) assessed as protection against maximal electroshock-induced seizures at 10 mg/kg, ip after 4 hr; type: functional, organism-based; parameters: dose 10 mg/kg
Mus musculus [7] = assay: Anticonvulsant activity in Swiss albino Mus musculus (mouse) assessed as protection against maximal electroshock-induced seizures at 5 mg/kg, ip after 1 hr; type: functional, organism-based; parameters: dose 5 mg/kg
Mus musculus [8] = assay: Anticonvulsant activity in Swiss albino Mus musculus (mouse) assessed as protection against maximal electroshock-induced seizures at 5 mg/kg, ip after 3 hr; type: functional, organism-based; parameters: dose 5 mg/kg
Mus musculus [9] = assay: Anticonvulsant activity in Swiss albino Mus musculus (mouse) assessed as protection against subcutaneous pentylenetetrazol-induced seizures at 5 mg/kg, ip after 0.5 hr; type: functional, organism-based; parameters: dose 5 mg/kg
Mus musculus [10] = assay: Anticonvulsant activity in Swiss albino Mus musculus (mouse) assessed as protection against subcutaneous pentylenetetrazol-induced seizures at 10 mg/kg, ip after 0.5 hr; type: functional, organism-based; parameters: dose 10 mg/kg
Mus musculus [11] = assay: Anticonvulsant activity in Swiss albino Mus musculus (mouse) assessed as protection against maximal electroshock-induced seizures at 10 mg/kg, ip after 2 hr; type: functional, organism-based; parameters: dose 10 mg/kg
Mus musculus [12] = assay: Anticonvulsant activity in Swiss albino Mus musculus (mouse) assessed as protection against maximal electroshock-induced seizures at 40 mg/kg, ip after 3 hr; type: functional, organism-based; parameters: dose 40 mg/kg
Mus musculus [13] = assay: Anticonvulsant activity in Swiss albino Mus musculus (mouse) assessed as protection against subcutaneous pentylenetetrazol-induced seizures at 20 mg/kg, ip after 0.5 hr; type: functional, organism-based; parameters: dose 20 mg/kg
Mus musculus [14] = assay: Anticonvulsant activity in Swiss albino Mus musculus (mouse) assessed as protection against maximal electroshock-induced seizures at 40 mg/kg, ip after 1 hr; type: functional, organism-based; parameters: dose 40 mg/kg
Mus musculus [15] = assay: Anticonvulsant activity in Swiss albino Mus musculus (mouse) assessed as protection against maximal electroshock-induced seizures at 10 mg/kg, ip after 3 hr; type: functional, organism-based; parameters: dose 10 mg/kg
Mus musculus [16] = assay: Anticonvulsant activity in Swiss albino Mus musculus (mouse) assessed as protection against maximal electroshock-induced seizures at 20 mg/kg, ip after 3 hr; type: functional, organism-based; parameters: dose 20 mg/kg
Mus musculus [17] = assay: Anticonvulsant activity in Swiss albino Mus musculus (mouse) assessed as protection against subcutaneous pentylenetetrazol-induced seizures at 40 mg/kg, ip after 0.5 hr; type: functional, organism-based; parameters: dose 40 mg/kg
Mus musculus [18] = assay: Anticonvulsant activity in Swiss albino Mus musculus (mouse) assessed as protection against maximal electroshock-induced seizures at 10 mg/kg, ip after 1 hr; type: functional, organism-based; parameters: dose 10 mg/kg
Mus musculus [19] = assay: Anticonvulsant activity in Swiss albino Mus musculus (mouse) assessed as protection against maximal electroshock-induced seizures at 20 mg/kg, ip after 2 hr; type: functional, organism-based; parameters: dose 20 mg/kg
Mus musculus [20] = assay: Anticonvulsant activity in Swiss albino Mus musculus (mouse) assessed as protection against subcutaneous pentylenetetrazol-induced seizures at 40 mg/kg, ip after 4 hr; type: functional, organism-based; parameters: dose 40 mg/kg
Mus musculus [21] = assay: Anticonvulsant activity in Swiss albino Mus musculus (mouse) assessed as protection against maximal electroshock-induced seizures at 40 mg/kg, ip after 4 hr; type: functional, organism-based; parameters: dose 40 mg/kg
Mus musculus [22] = assay: Anticonvulsant activity in Swiss albino Mus musculus (mouse) assessed as protection against maximal electroshock-induced seizures at 40 mg/kg, ip after 2 hr; type: functional, organism-based; parameters: dose 40 mg/kg

Structure (SMILES) | Activity (Mus musculus [1]) | Activity (Mus musculus [3]) | Activity (Mus musculus [4]) | Activity (Mus musculus [6]) | Activity (Mus musculus [11]) | Activity (Mus musculus [13]) | Activity (Mus musculus [14]) | Activity (Mus musculus [17]) | Activity (Mus musculus [21]) | other results
CCC(=O)NC1=CC(=O)C(=O)c2ccccc21 | inactive | inactive | Active | inactive | – | – | – | – | – | Activity (Mus musculus [2]): inactive; Activity (Mus musculus [5]): Non-toxic
O=C1NC(=O)C(c2ccccc2)(c2ccccc2)N1 | – | – | – | – | – | – | – | – | – | Activity (Mus musculus [7]): Active; Activity (Mus musculus [8]): Active; Activity (Mus musculus [9]): Active
O=C1C=C(NC(=O)c2ccccc2)c2ccccc2C1=O | inactive | inactive | – | inactive | inactive | – | – | – | – | Activity (Mus musculus [10]): inactive
CC(C)CC(=O)NC1=CC(=O)C(=O)c2ccccc21 | – | – | Active | – | – | Active | Active | Active | – | Activity (Mus musculus [12]): Active; Activity (Mus musculus [15]): Active; Activity (Mus musculus [16]): Active
O=C1C=C(NC(=O)c2cccnc2)c2ccccc2C1=O | – | inactive | – | inactive | inactive | – | – | – | – | –
CC(=O)Nc1ccc(C(=O)NC2=CC(=O)C(=O)c3ccccc32)cc1 | – | Active | Active | – | Active | Active | Active | Active | Active | Activity (Mus musculus [18]): Active; Activity (Mus musculus [2]): inactive; Activity (Mus musculus [19]): Active; Activity (Mus musculus [20]): Active; Activity (Mus musculus [22]): Active
CCCCCC(=O)NC1=CC(=O)C(=O)c2ccccc21 | – | – | Active | – | Active | Active | – | Active | Active | Activity (Mus musculus [18]): Active; Activity (Mus musculus [19]): Active; Activity (Mus musculus [20]): Active
CC(C)C(=O)NC1=CC(=O)C(=O)c2ccccc21 | – | – | Active | – | – | – | Active | Active | – | –
CC(=O)NCC(=O)NC1=CC(=O)C(=O)c2ccccc21 | inactive | – | – | – | – | – | – | – | inactive | Activity (Mus musculus [18]): Active; Activity (Mus musculus [12]): inactive; Activity (Mus musculus [16]): Active
CCCC(=O)NC1=CC(=O)C(=O)c2ccccc21 | – | – | Active | inactive | – | Active | Active | Active | – | Activity (Mus musculus [12]): Active; Activity (Mus musculus [20]): Active; Activity (Mus musculus [16]): Active
CC(=O)NC1=CC(=O)C(=O)c2ccccc21 | inactive | inactive | Active | inactive | – | – | Active | – | inactive | Activity (Mus musculus [2]): inactive; Activity (Mus musculus [15]): inactive
